Reference: US20260232666A1, “COMPOSITIONS AND METHODS FOR INHIBITION OF RAS” (TheRas, Inc., priority 2023, published 2026)

Columns and labels:
[1] = molecular target: T1, Avi-KRAS G12C (1-169) GppNHp/RAF1 RBD-3×FLAG (52-151) (Homo sapiens, UniProt P01116, G12C); test: Raf1 RBD-KRAS G12C-GppNHp disruption assay (protein:protein interaction HTRF); assay type: biochemical
T1 construct: Avi-KRAS G12C (1-169) GppNHp; Avi (N)
Protocol: Biological Example 2: Disrupting KRAS G12C-Effector Binding (Protein: Protein Interaction HTRF Assay)
A protein: protein interaction (PPI) Homogeneous Time Resolved Fluorescence (HTRF) assay was used to determine the effectiveness of compounds of the present disclosure in disrupting KRAS G12C protein and effector (RAF1 Ras Binding Domain (RBD)) binding.
The HTRF assay used the following reagents and proteins: 50 nM Avi-KRAS G12C (1-169) GppNHp/RAF1 RBD-3×FLAG (52-151); 35 nM Avi-PI3K RBD-3×FLAG; Assay Buffer: 50 mM Tris pH 7.5, 100 mM NaCl, 5 mM MgCl2, 0.1% BSA, 0.01% Tween 20, 10% DMSO; Bead Buffer: 50 mM Tris pH 7.5, 0.01% Tween 20; Assay volume: 20 μL (384 well plate-low volume format); and Compound titration: 30-0.02 μM, 3× dilution series.
The HTRF assay employed the following protocol:
Compounds were dispensed in assay plate (384-well, Grenier Bio-One #784075) using Echo (model 555) with dose response settings: 200 nL final volume, titration from 100 μM as a 10-point dilution series. KRAS proteins were prepared in assay buffer, and dispensed on plates, 5 μL per well, then incubated for 1 h at room temperature, with 700 rpm shaking. RAF1 RBD were prepared in assay buffer, dispensed onto plates, 5 μL per well, and then incubated for 1 h at room temperature, with 700 rpm shaking. Reagent mix was then prepared and dispensed on plates, 10 μL per well, and then incubated for 1 h at room temperature, with 700 rpm shaking.
Plates were analyzed on an Envision plate reader using the following setting: Excitation 320 nm, Bandwidth 75 nm; Emission 615 nm, Bandwidth 85 nm; Gain 100%; Flashes 100; Lag 60 μs. Data was reported as percentage of activity, with DMSO as 100%. Data was plotted and analyzed using Prism 8.
The percent of modification of GppNHp, GTP, or GDP loaded KRAS G12C by MALDI-TOF MS, biochemical Raf1 RBD-KRAS G12C-GppNHp disruption assay IC50, and pERK inhibition IC50 of selected compounds described herein are shown in Table 4. For percent of modification at 15 minutes (MALDI-TOF MS) of GppNHp, GTP, or GDP loaded KRAS G12C: A: percent of modification ≥70%; B: 50≤percent of modification <70%; C: 10%≤percent of modification <50%; D: percent of modification <10%. […] For pERK inhibition in H358 cell assay: A: IC50≤0.1 μM; B: 0.1 μM<IC50≤1 μM; C: IC50>1 μM. Blanks in the table represent that compound was not tested in the indicated assay.

pERK in NCI-H358 cells = test: Cell-based pERK HTRF assay (pERK inhibition in H358 cells); conditions: 30 min incubation
In short: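 NCI-H358 cells were seeded at 4×10^4 cells/well in RPMI/10% FBS, then treated next day for 30 min at 0.25% DMSO (9-point, 3-fold series from 75 μM). Lysates were read by HTRF (d2/Eu cryptate antibody pair, 615 nm emission) after 4–24 h at room temperature to give pERK IC50.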

[2] = molecular target: T2, GppNHp-loaded KRAS4b (amino acids 1-169) G12C/C118S protein (Homo sapiens, UniProt P01116, C118S/G12C); test: Covalent cysteine 12 modification by MALDI-TOF MS, GppNHp-loaded KRAS G12C; assay type: binding; conditions: 15 minutes reaction time point
T2 construct: KRAS4b (amino acids 1-169) G12C/C118S protein; made in house
In short: (§1)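 1 μM GppNHp-, GTP- or GDP-loaded KRAS4b (1-169) G12C/C118S in 20 mM HEPES, 150 mM NaCl, 1 mM MgCl2, pH 7.3, at 1:2.5 protein:compound, room temperature in the dark. Percent Cys12 modification from MALDI-TOF peak heights (adduct/total protein), reported at 15 min.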

[3] = molecular target: T3, GTP-loaded KRAS4b (amino acids 1-169) G12C/C118S protein (Homo sapiens, UniProt P01116, C118S/G12C); test: Covalent cysteine 12 modification by MALDI-TOF MS, GTP-loaded KRAS G12C; assay type: binding; conditions: 15 minutes reaction time point
T3 construct: KRAS4b (amino acids 1-169) G12C/C118S protein; made in house
In short: as §1

[4] = molecular target: T4, GDP-loaded KRAS4b (amino acids 1-169) G12C/C118S protein (Homo sapiens, UniProt P01116, C118S/G12C); test: Covalent cysteine 12 modification by MALDI-TOF MS, GDP-loaded KRAS G12C; assay type: binding; conditions: 15 minutes reaction time point
T4 construct: KRAS4b (amino acids 1-169) G12C/C118S protein; made in house
In short: as §1

Compound	IC50 [1]	IC50 (pERK in NCI-H358 cells)	IC50 (pERK in NCI-H358 cells; Homo sapiens, NCI-H358, 0.5 h)	GppNHp-KRAS G12C percent of modification [2]	GTP-KRAS G12C percent of modification [3]	GDP-KRAS G12C percent of modification [4]
C=CC(=O)N1CC[C@@H](N(C)c2nc(OC[C@@]34CCCN3C[C@H](F)C4)nc3c(F)c(-c4ccc(F)c5sc(N)c(C#N)c45)c(C(F)(F)F)cc23)[C@@H]1C (atropisomer, axis not shown) [Compound 71]	500 to 5000 nM	100 to 1000 nM				
C=CC(=O)N1CC[C@@H](N(C)c2nc(OC[C@@]34CCCN3C[C@H](F)C4)nc3cc(-c4ccc(F)c5sc(N)c(C#N)c45)c(F)cc23)[C@H]1C [Compound 15]	< 500 nM					
C=CC(=O)N1CC[C@@H](N(C)c2nc(OC[C@@]34CCCN3C[C@H](F)C4)nc3cc(-c4ccc(F)c5sc(N)c(C#N)c45)c(C#N)cc23)[C@H]1C [Compound 16]	< 500 nM		< 100 nM			
C=CC(=O)N1CC[C@@H](N(C)c2nc(OC[C@@H]3CCCN3C)nc3c(F)c(-c4ccc(F)c5sc(N)c(C#N)c45)c(C(F)(F)F)cc23)[C@@H]1C [Compound 38]	< 500 nM		< 100 nM	A (percent of modification ≥70%)		
C=CC(=O)N1CC[C@@H](N(C)c2nc(OC[C@@]34CCCN3C[C@H](F)C4)nc3c(F)c(-c4ccc(F)c5sc(N)c(C#N)c45)ccc23)[C@@H]1C [Compound 43]	< 500 nM		< 100 nM	A (percent of modification ≥70%)		
[2H]C1([2H])CCC2(C([2H])([2H])Oc3nc(N4CC(C)N(C(=O)C=C)CC4C)c4cc(C(F)(F)F)c(-c5ccc(F)c6sc(N)c(C#N)c56)c(F)c4n3)CC(F)CN12 (stereo not shown) [Compound 96]	< 500 nM		< 100 nM			
[2H]C1([2H])CN2C[C@H](F)C[C@]2(COc2nc(N(CC)[C@@H]3CCN(C(=O)C=C)[C@@H]3C)c3cc(F)c(-c4ccc(F)c5sc(N)c(C#N)c45)cc3n2)C1 [Compound 123]	< 500 nM		< 100 nM			
[2H]C1([2H])CN2C[C@H](F)C[C@]2(COc2nc(N3C[C@@H](C)N(C(=O)C=C)C[C@@H]3C)c3cc(C(F)(F)F)c(-c4ccc(F)c5sc(N)c(C#N)c45)c(F)c3n2)C1 [Compound 125]	< 500 nM			A (percent of modification ≥70%)		
[2H]C1([2H])CN2C[C@H](F)C[C@]2(COc2nc(N(C)[C@@H]3CCN(C(=O)C=C)[C@@H]3C)c3cc(C(F)(F)F)c(-c4ccc(F)c5sc(N)c(C#N)c45)c(F)c3n2)C1 [Compound 128, 4-(4-(((2R,3R)-1-acryloyl-2-methylpyrrolidin-3-yl)(methyl)amino)-8-fluoro-2-(((2R,7aS)-2-fluorotetrahydro-1H-pyrrolizin-7a(5H)-yl-6,6-d2)methoxy)-6-(trifluoromethyl)quinazolin-7-yl)-2-amino-7-fluorobenzo[b]thiophene-3-carbonitrile]	< 500 nM		< 100 nM	A (percent of modification ≥70%)		
C=CC(=O)N1CC[C@@H](N(C)c2nc(OC[C@]34CCCN3C[C@H](F)C4)nc3c(F)c(-c4ccc(F)c5sc(N)c(C#N)c45)c(C(F)(F)F)cc23)[C@H]1C [Compound 157]	< 500 nM		< 100 nM			
C=CC(=O)N1CC[C@@H](N(C)c2nc(OC[C@@]34CCCN3C[C@H](OC)C4)nc3c(F)c(-c4ccc(F)c5sc(N)c(C#N)c45)c(Cl)cc23)[C@H]1C [Compound 160]	< 500 nM		< 100 nM		A (percent of modification ≥70%)	
C=CC(=O)N1CC[C@@H](N(C)c2nc(OC[C@]34CCCN3C[C@H](F)C4)nc3c(F)c(-c4ccc(F)c5sc(N)c(C#N)c45)c(Cl)cc23)[C@H]1C [Compound 162]	< 500 nM		< 100 nM	A (percent of modification ≥70%)		
C=CC(=O)N1CC[C@@H](N(CC)c2nc(OC[C@]34CCCN3C[C@H](F)C4)nc3c(F)c(-c4ccc(F)c5sc(N)c(C#N)c45)ccc23)[C@H]1C [Compound 170]	< 500 nM		< 100 nM	A (percent of modification ≥70%)		
C=CC(=O)N1CC[C@@H](N(C)c2nc(OC[C@@H]3CC(=C(F)F)CN3C)nc3c(F)c(-c4ccc(F)c5sc(N)c(C#N)c45)c(Cl)cc23)[C@H]1C [Compound 202]			100 to 1000 nM	B (50≤percent of modification <70%)	C (10%≤percent of modification <50%)	B (50≤percent of modification <70%)
C=CC(=O)N1CC[C@@H](N(C)c2nc(O[C@@H](C)[C@@H]3C(=C)CCN3C)nc3c(F)c(-c4ccc(F)c5sc(N)c(C#N)c45)c(C(F)(F)F)cc23)[C@H]1C [Compound 203]			< 100 nM	A (percent of modification ≥70%)	A (percent of modification ≥70%)	A (percent of modification ≥70%)
C=CC(=O)N1CC[C@@H](N(C)c2nc(O[C@@H](C)[C@@H]3CC(=C(F)F)CN3C)nc3c(F)c(-c4ccc(F)c5sc(N)c(C#N)c45)c(C(F)(F)F)cc23)[C@H]1C [Compound 204]			100 to 1000 nM	C (10%≤percent of modification <50%)	C (10%≤percent of modification <50%)	C (10%≤percent of modification <50%)
C=CC(=O)N1CC[C@@H](N(C)c2nc(OC[C@@H]3CC(=C(F)F)CN3C)nc3c(F)c(-c4ccc(F)c5sc(N)c(C#N)c45)c(C(F)(F)F)cc23)[C@H]1C [Compound 205]			< 100 nM	B (50≤percent of modification <70%)	C (10%≤percent of modification <50%)	C (10%≤percent of modification <50%)
C=CC(=O)N1CCC(N(C)c2nc(OC(C)C3CC(=C(F)F)CN3C)nc3c(F)c(-c4ccc(F)c5sc(N)c(C#N)c45)c(Cl)cc23)C1C (stereo not shown) [Compound 206]			100 to 1000 nM	A (percent of modification ≥70%)	B (50≤percent of modification <70%)	A (percent of modification ≥70%)
C=CC(=O)N1CC[C@@H](N(C)c2nc(O[C@@H](C)[C@@H]3C(=C(F)F)CCN3C)nc3c(F)c(-c4ccc(F)c5sc(N)c(C#N)c45)c(C(F)(F)F)cc23)[C@H]1C [Compound 207]			< 100 nM	B (50≤percent of modification <70%)	C (10%≤percent of modification <50%)	B (50≤percent of modification <70%)
